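Dose response: 5 concentrations. Exposure: 48 h. Format: 96-well plates. Endpoint: linear interpolation; highest concentration if not reached. Here, GI50 denotes the concentration required for 50% inhibition of growth.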 Activity calls are given as the source filed them. Rule as the data show it: active = GI50 up to about 1.1 µM and inactive = higher.
Assays:
Assay in all cases: NCI tumour cell line growth inhibition, 48 h
SNB-19 = system: SNB-19
RPMI-8226 = system: RPMI-8226
NCI-H226 = system: NCI-H226
MDA-MB-231 = system: MDA-MB-231
NCI-H460 = system: NCI-H460
SF-268 = system: SF-268
NCI/ADR-RES = system: NCI/ADR-RES
OVCAR-3 = system: OVCAR-3
NCI-H522 = system: NCI-H522
MDA-MB-435 = system: MDA-MB-435
MCF7 = system: MCF7
UACC-62 = system: UACC-62
HOP-62 = system: HOP-62
OVCAR-5 = system: OVCAR-5
KM12 = system: KM12
OVCAR-8 = system: OVCAR-8
HT-29 = system: HT-29
NCI-H23 = system: NCI-H23
UO-31 = system: UO-31
SW-620 = system: SW-620

Cc1c2cccc-2c(OCCO)cc2c1[nH]c1ccccc12
GI50 (SNB-19): 8.57 µM (inactive) | GI50 (RPMI-8226): 3 µM (inactive) | GI50 (NCI-H226): 2.96 µM (inactive) | GI50 (MDA-MB-231): 1.98 µM (inactive) | GI50 (NCI-H460): 3.61 µM (inactive) | GI50 (SF-268): 1.65 µM (inactive) | GI50 (NCI/ADR-RES): 3.03 µM (inactive) | GI50 (OVCAR-3): 1.81 µM (inactive) | GI50 (NCI-H522): 1.83 µM (inactive) | GI50 (MDA-MB-435): 3.53 µM (inactive) | GI50 (MCF7): 2.69 µM (inactive) | GI50 (UACC-62): 2.67 µM (inactive) | GI50 (HOP-62): 3.42 µM (inactive) | GI50 (OVCAR-5): 2.26 µM (inactive) | GI50 (KM12): 2.58 µM (inactive) | GI50 (OVCAR-8): 3.6 µM (inactive) | GI50 (HT-29): 3.52 µM (inactive) | GI50 (NCI-H23): 2.54 µM (inactive) | GI50 (UO-31): 1.5 µM (inactive) | GI50 (SW-620): 3.52 µM (inactive)

O=C(c1ccccc1)c1ccc2[nH]c(-c3c(Cl)c(Cl)c(Cl)c(Cl)c3-c3nnc(-c4ccccc4)o3)nc2c1
GI50 (SNB-19): 56.9 µM (inactive) | GI50 (RPMI-8226): 12.4 µM (inactive) | GI50 (NCI-H226): 22.8 µM (inactive) | GI50 (MDA-MB-231): 25.4 µM (inactive) | GI50 (SF-268): 31.4 µM (inactive) | GI50 (NCI/ADR-RES): 13.2 µM (inactive) | GI50 (OVCAR-3): 13.8 µM (inactive) | GI50 (NCI-H522): 6.28 µM (inactive) | GI50 (MDA-MB-435): 3.51 µM (inactive) | GI50 (MCF7): 9.79 µM (inactive) | GI50 (HOP-62): 25.8 µM (inactive) | GI50 (OVCAR-5): 67.5 µM (inactive) | GI50 (KM12): 22.3 µM (inactive) | GI50 (OVCAR-8): 58.1 µM (inactive) | GI50 (HT-29): 31.3 µM (inactive) | GI50 (NCI-H23): 31.7 µM (inactive) | GI50 (UO-31): 49.3 µM (inactive) | GI50 (SW-620): 29.7 µM (inactive)

COP(=O)(OC)/C(=C/c1c[nH]c2ccccc12)C(=O)O
GI50 (SNB-19): > 100 µM (inactive) | GI50 (RPMI-8226): > 100 µM (inactive) | GI50 (NCI-H226): > 100 µM (inactive) | GI50 (MDA-MB-231): > 100 µM (inactive) | GI50 (NCI-H460): > 100 µM (inactive) | GI50 (NCI/ADR-RES): > 100 µM (inactive) | GI50 (OVCAR-3): > 100 µM (inactive) | GI50 (NCI-H522): > 100 µM (inactive) | GI50 (MDA-MB-435): > 100 µM (inactive) | GI50 (MCF7): > 100 µM (inactive) | GI50 (UACC-62): > 100 µM (inactive) | GI50 (HOP-62): > 100 µM (inactive) | GI50 (OVCAR-5): > 100 µM (inactive) | GI50 (KM12): > 100 µM (inactive) | GI50 (OVCAR-8): > 100 µM (inactive) | GI50 (HT-29): > 100 µM (inactive) | GI50 (NCI-H23): > 100 µM (inactive) | GI50 (UO-31): > 100 µM (inactive) | GI50 (SW-620): > 100 µM (inactive)

COc1cc(/C=N/c2nc3cc4sc(/N=C/c5cc(OC)c(OC)c(OC)c5)nc4cc3s2)cc(OC)c1OC
GI50 (SNB-19): > 100 µM (inactive) | GI50 (RPMI-8226): 51.2 µM (inactive) | GI50 (NCI-H226): 31.4 µM (inactive) | GI50 (MDA-MB-231): 79.4 µM (inactive) | GI50 (NCI-H460): 21.5 µM (inactive) | GI50 (SF-268): 89.1 µM (inactive) | GI50 (NCI/ADR-RES): 34.1 µM (inactive) | GI50 (OVCAR-3): 32.7 µM (inactive) | GI50 (NCI-H522): 45.8 µM (inactive) | GI50 (MDA-MB-435): 39.1 µM (inactive) | GI50 (MCF7): 53.8 µM (inactive) | GI50 (UACC-62): 67.1 µM (inactive) | GI50 (HOP-62): 57.1 µM (inactive) | GI50 (OVCAR-5): > 100 µM (inactive) | GI50 (KM12): 52.1 µM (inactive) | GI50 (OVCAR-8): 95.5 µM (inactive) | GI50 (HT-29): 52.7 µM (inactive) | GI50 (NCI-H23): 56.1 µM (inactive) | GI50 (UO-31): 62.8 µM (inactive) | GI50 (SW-620): 33.1 µM (inactive)

CSc1nc(-c2ccccc2)nc(C(C#N)C#N)n1
GI50 (SNB-19): > 100 µM (inactive) | GI50 (RPMI-8226): > 100 µM (inactive) | GI50 (NCI-H226): > 100 µM (inactive) | GI50 (MDA-MB-231): > 100 µM (inactive) | GI50 (SF-268): > 100 µM (inactive) | GI50 (NCI/ADR-RES): > 100 µM (inactive) | GI50 (OVCAR-3): > 100 µM (inactive) | GI50 (NCI-H522): > 100 µM (inactive) | GI50 (MDA-MB-435): > 100 µM (inactive) | GI50 (MCF7): > 100 µM (inactive) | GI50 (UACC-62): > 100 µM (inactive) | GI50 (HOP-62): > 100 µM (inactive) | GI50 (OVCAR-5): > 100 µM (inactive) | GI50 (KM12): > 100 µM (inactive) | GI50 (OVCAR-8): > 100 µM (inactive) | GI50 (HT-29): > 100 µM (inactive) | GI50 (NCI-H23): > 100 µM (inactive) | GI50 (UO-31): 61.2 µM (inactive) | GI50 (SW-620): > 100 µM (inactive)

CC1=C2O[C@]3(O)C=C2C(=C(O)C1=O)[C@@H]1O[C@H](CC[C@H](C)/C=C(\C)C[C@@H](C)C[C@@H]3C)[C@H](C)[C@H](O)[C@H]1C [KENDOMYCIN]
GI50 (SNB-19): 0.977 µM (active) | GI50 (RPMI-8226): 0.118 µM (active) | GI50 (NCI-H226): 1.12 µM (active) | GI50 (MDA-MB-231): 0.151 µM (active) | GI50 (NCI-H460): 0.728 µM (active) | GI50 (SF-268): 0.354 µM (active) | GI50 (NCI/ADR-RES): 0.311 µM (active) | GI50 (OVCAR-3): 0.15 µM (active) | GI50 (NCI-H522): 0.218 µM (active) | GI50 (MDA-MB-435): 0.145 µM (active) | GI50 (MCF7): 0.179 µM (active) | GI50 (UACC-62): 0.233 µM (active) | GI50 (HOP-62): 0.356 µM (active) | GI50 (OVCAR-5): 1.31 µM (inactive) | GI50 (KM12): 0.661 µM (active) | GI50 (HT-29): 0.181 µM (active) | GI50 (NCI-H23): 0.316 µM (active) | GI50 (UO-31): 0.193 µM (active) | GI50 (SW-620): 0.582 µM (active)

C[N+](C)(C)CC(=O)N/N=C(\Cc1nc2ccc([N+](=O)[O-])cc2nc1O)C(=O)Nc1nc2ccc([N+](=O)[O-])cc2s1
GI50 (RPMI-8226): 34.5 µM (inactive) | GI50 (NCI-H226): 25.4 µM (inactive) | GI50 (MDA-MB-231): > 100 µM (inactive) | GI50 (NCI-H460): 23.4 µM (inactive) | GI50 (SF-268): 34 µM (inactive) | GI50 (NCI/ADR-RES): 63.4 µM (inactive) | GI50 (OVCAR-3): 31.8 µM (inactive) | GI50 (NCI-H522): 13.3 µM (inactive) | GI50 (MDA-MB-435): 85.1 µM (inactive) | GI50 (MCF7): 29.4 µM (inactive) | GI50 (UACC-62): 62.2 µM (inactive) | GI50 (HOP-62): 57.9 µM (inactive) | GI50 (OVCAR-5): > 100 µM (inactive) | GI50 (KM12): 45.2 µM (inactive) | GI50 (OVCAR-8): 74.3 µM (inactive) | GI50 (HT-29): 45.6 µM (inactive) | GI50 (NCI-H23): 30.7 µM (inactive) | GI50 (UO-31): 25.7 µM (inactive) | GI50 (SW-620): 78 µM (inactive)

Source: ChEMBL document CHEMBL1201862, “PubChem BioAssay data set” (2004)
